Assay results taken from patent US6562830B1, “Method of treating a patient having precancerous lesions with phenyl quinazolinone derivatives” (Cell Pathways, Inc., priority 1999, dated 2003).

melting point | SMILES
185 °C | CCCOc1ccccc1-c1nc2cc(N)ccc2c(=O)[nH]1 [Example 26, 7-Amino-2-(2-Propoxyphenyl)-4(3H)-quinazolinone]
204 to 205 °C | CCCOc1ccccc1-c1nc2cc(NC)ccc2c(=O)[nH]1 [Example 27, 7-Methylamino-2-(2-Propoxyphenyl)-4(3H)-quinazolinone]
